Paper PMC7824787, “Design, Synthesis and In Vitro Investigation of Novel Basic Celastrol Carboxamides as Bio-Inspired Leishmanicidal Agents Endowed with Inhibitory Activity against Leishmania Hsp90” (Biomolecules, 2021)

Target: LbHsp90 (Leishmania braziliensis, UniProt A4HL70)
Assay: LbHsp90 ATPase kinetics (NADH-coupled enzymatic cascade)
Format: biochemical
Conditions: for LbHsp90 Inhibition (%): compound 50 μM, 3.5 μM LbHsp90, 1 mM ATP; for inhibition at 50 µM: read-out: LbHsp90 Inhibition (%), compound 50 μM, 3.5 μM LbHsp90, 1 mM ATP
Experimental: The reaction was initiated by the addition of ATP (1 mM) and absorbance changes at 346 nm were monitored for 30 min at 30 °C.
Native LbHsp90 kinetics was measured as described but in the absence of DMSO. Two control experiments were run as follows: • (1) Efficiency of the enzymatic cascade by the used compounds: HEPES buffer (20 mM, pH 7.5) containing KCl (100 mM), MgCl2 (1 mM), ADP (1 mM), NADH (0.18 mM), L-lactate dehydrogenase (4 U mL^−1), phosphoenolpyruvate (1 mM), pyruvate kinase (2.5 U mL^−1); • (2) Interference of the tested compound(s) with the enzymatic cascade: HEPES buffer (20 mM, pH 7.5) containing KCl (100 mM), MgCl2 (1 mM), ADP (1 mM), NADH (0.18 mM), L-lactate dehydrogenase (4 U mL^−1), phosphoenolpyruvate (1 mM), pyruvate kinase (2.5 U mL^−1) and 50 μM compound.
Accordingly, an in vitro assay developed for the evaluation of non-competitive allosteric modulators, which exploits ATPase kinetics data, was used. Briefly, the decrease in absorbance deriving from the continuous oxidation of NADH to NAD^+ produced by a multi-enzymatic cascade triggered by LbHp90-catalyzed ATP hydrolysis is followed spectrophotometrically over the course of 15 min (for details see Appendix B). All the experiments were normalized using the native ATPase activity of LbHsp90 measured in the presence of DMSO, the co-solvent selected for compounds solubilization.
Figure A1 Enzymatic cascade reactions to spectroscopically evaluate L. Hsp90 ATPase kinetics. The ADP produced by ATP hydrolysis during the chaperone cycle reacts with PEP (phosphoenolpyruvate) to form pyruvate in a reaction catalyzed by the enzyme pyruvate kinase (PK), whereby ATP is regenerated. Pyruvate then continues the cascade process and is reduced to lactic acid by action of lactate dehydrogenase (LDH), whereby NADH is oxidized to NAD^+.
LbHsp90 inhibition (%) = (1 − k/knative) * 100 k = ΔAbs/min = extrapolated apparent kinetic constant (Abs/min)

Chain of LbHsp90 (A4HL70 entry or part of it): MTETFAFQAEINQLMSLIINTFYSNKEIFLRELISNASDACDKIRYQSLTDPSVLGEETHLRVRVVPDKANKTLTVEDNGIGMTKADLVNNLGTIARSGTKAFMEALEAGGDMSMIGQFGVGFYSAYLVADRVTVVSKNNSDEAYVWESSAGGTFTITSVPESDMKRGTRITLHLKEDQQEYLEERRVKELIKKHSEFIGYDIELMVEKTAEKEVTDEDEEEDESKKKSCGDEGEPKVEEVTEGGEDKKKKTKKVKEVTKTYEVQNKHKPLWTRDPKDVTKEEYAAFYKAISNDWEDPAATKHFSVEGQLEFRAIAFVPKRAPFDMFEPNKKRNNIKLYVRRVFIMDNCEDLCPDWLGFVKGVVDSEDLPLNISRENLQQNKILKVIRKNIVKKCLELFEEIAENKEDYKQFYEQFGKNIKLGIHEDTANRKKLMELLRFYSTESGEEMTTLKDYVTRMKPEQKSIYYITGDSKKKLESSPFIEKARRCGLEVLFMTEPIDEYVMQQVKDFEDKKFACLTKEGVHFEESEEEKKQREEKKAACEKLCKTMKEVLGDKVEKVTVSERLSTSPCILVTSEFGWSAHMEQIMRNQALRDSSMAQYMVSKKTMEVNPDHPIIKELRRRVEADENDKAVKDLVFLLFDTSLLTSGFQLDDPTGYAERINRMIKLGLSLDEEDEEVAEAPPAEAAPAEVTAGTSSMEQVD

SMILES	LbHsp90 Inhibition (%)	inhibition at 50 µM [%]
CC1=C(O)C(=O)C=C2C1=CC=C1[C@@]2(C)CC[C@@]2(C)[C@@H]3C[C@](C)(C(=O)O)CC[C@]3(C)CC[C@]12C [CE, celastrol]	28.9 ± 5.4	30
CC1=C(O)C(=O)C=C2C1=CC=C1[C@@]2(C)CC[C@@]2(C)[C@@H]3C[C@](C)(C(=O)NCCN4CCCC4)CC[C@]3(C)CC[C@]12C [compound 3, (2R,4aS,6aS,12bR,14aS,14bR)-10-hydroxy-2,4a,6a,9,12b,14a-hexamethyl-11-oxo-N-(2-(pyrrolidin-1-yl)ethyl)-1,2,3,4,4a,5,6,6a,11,12b,13,14,14a,14b-tetradecahydropicene-2-carboxamide]	97.8 ± 1.2	95
